Values quoted from earlier work in patent US20070293937A1, “Endoluminal medical device for local delivery of cathepsin inhibitors, method of making and treating” (MED Institute, Inc., priority 2006, published 2007).
pKi: −log10 of the molar value. Where a SMILES comes first, the peptide text is derived from it. The star is where a group is joined. CHN2 = [N-]=[N+]=C*

Experiments:
cathepsin C [1] = conditions: Tompson et al.
cathepsin C [2] = biological target: cathepsin C (Homo sapiens, UniProt P53634); conditions: natural inhibitors
cathepsin C [3] = conditions: Green and Shaw, J. Biol. Chem. 1981
purified cathepsin C = conditions: as found by Kam et al.

cathepsin C (Homo sapiens, UniProt P53634), sequence (P53634 25-463, species assumed): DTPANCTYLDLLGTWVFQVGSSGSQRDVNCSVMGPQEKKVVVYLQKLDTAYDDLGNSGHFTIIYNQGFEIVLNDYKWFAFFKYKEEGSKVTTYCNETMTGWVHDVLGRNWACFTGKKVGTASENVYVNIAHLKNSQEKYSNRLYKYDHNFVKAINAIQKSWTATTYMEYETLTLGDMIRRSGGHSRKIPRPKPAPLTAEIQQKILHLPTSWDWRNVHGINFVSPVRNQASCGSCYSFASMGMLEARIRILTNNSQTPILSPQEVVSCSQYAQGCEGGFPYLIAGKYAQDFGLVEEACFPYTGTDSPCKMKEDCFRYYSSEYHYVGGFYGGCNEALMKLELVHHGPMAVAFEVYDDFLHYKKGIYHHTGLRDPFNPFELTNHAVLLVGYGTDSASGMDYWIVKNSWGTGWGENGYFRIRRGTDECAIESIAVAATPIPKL

CS(=O)(=O)C=CC(Cc1ccccc1)NC(=O)CN (stereo not drawn) [Gly-Phe-VS—CH3]
k2/Kl (cathepsin C [1]; J. Med. Chem. 1986): 56 M⁻¹ s⁻¹

cystatin
inhibition of cathepsin C (in words) (cathepsin C [2]): inhibit cathepsin C at high inhibitor concentrations

CC(C)C[C@H](NC(=O)[C@H]1O[C@@H]1C(=O)O)C(=O)NCCCCN=C(N)N [Compound E-64, E-64]
inhibition of cathepsin C (in words) (cathepsin C [2]): inhibit cathepsin C at high inhibitor concentrations

CC(=O)N[C@@H](CC(C)C)C(=O)N[C@@H](CC(C)C)C(=O)N[C@H](C=O)CCCNC(=N)N [leupeptin]
inhibition of cathepsin C (in words) (cathepsin C [2]): inhibit cathepsin C at high inhibitor concentrations

N#CC(Cc1ccccc1)NC(=O)CN (stereo not shown) [Gly-NHCH(CH2Ph)CN]
pKi (cathepsin C [1]; reversible nitrile inhibitor, J. Med. Chem. 1986, read-out: Kl value): 5.57

[N-]=[N+]=CC(=O)[C@H](Cc1ccccc1)NC(=O)CN [Gly-Phe-CHN2] (H-Gly-Phe-CHN2)
kobs/[l] (cathepsin C [3]): 10^4 M^−1 s^−1 | inhibition of cathepsin C (in words) (purified cathepsin C): potent inhibitor
